Assay results from ChEMBL document CHEMBL1133273, “Synthesis and evaluation of quinoline carboxyguanidines as antidiabetic agents” (2000).

What was measured:
Format in all cases: functional
[1] = test system: Rattus norvegicus; experiment: Percent glycaemia evolution at 200 mg/kg at 2 hr after the last administration for 4 days chronic treatment (J4) in Wistar rats
[2] = test system: Rattus norvegicus; experiment: Percent glycaemia evolution at 20 mg/kg at 2 hr after a sharp administration (J1) in Wistar rats
[3] = test system: Rattus norvegicus; experiment: Percent glycaemia evolution at 20 mg/kg at 2 hr after the last administration for 4 days chronic treatment (J4) in Wistar rats
[4] = test system: Rattus norvegicus; experiment: Percent glycaemia evolution at 200 mg/kg at 2 hr after a sharp administration (J1) in Wistar rats
[5] = test system: Rattus norvegicus; experiment: Number of deaths at 20 mg/kg at 2 hr after the last administration for 4 days chronic treatment (J4) in Wistar rats; 1 death/5
[6] = test system: Rattus norvegicus; experiment: Number of deaths at 200 mg/kg at 2 hr after the last administration for 4 days chronic treatment (J4) in Wistar rats; 4 death/5

| Structure (SMILES) | Glycaemia evolution [1] [%] | Glycaemia evolution [2] [%] | Glycaemia evolution [3] [%] | Glycaemia evolution [4] [%] | No. of deaths [5] | No. of deaths [6] |
| --- | --- | --- | --- | --- | --- | --- |
| CCOc1cc(C(=O)Nc2nn[nH]n2)nc2ccc(F)cc12 | -6 | 8 | 4 | 9 | – | – |
| Cl.N=C(N)NC(=O)c1cc(O)c2cc(F)ccc2n1 | -14 | -5 | -15 | -7 | – | – |
| CCOc1cc(C(=O)NNC(N)=O)nc2ccc(F)cc12 | -3 | 3 | -8 | 8 | – | – |
| CCOc1cc(C(=O)NN=C(N)N)nc2ccc(F)cc12.Cl | -14 | 6 | -3 | -4 | – | – |
| NC(=O)NNC(=O)c1cc(O)c2cc(F)ccc2n1 | -14 | -6 | -16 | -7 | – | – |
| COc1ccc2ncc(C(=O)N=C(N)N)c(O)c2c1.Cl | 3 | 5 | 3 | -8 | – | – |
| Cl.N=C(N)NNC(=O)c1cc(O)c2cc(F)ccc2n1 | -2 | 8 | 4 | 8 | – | – |
| CCOc1cc(C(=O)N=C(N)N)nc2cc(OC)ccc12 | 2 | 2 | -2 | 6 | – | – |
| CCOc1cc(C(=O)N=C(N)N)nc2ccc(F)cc12.Cl | -30 | -8 | -10 | -5 | – | – |
| CCN1CC(C(=O)N/N=C(\N)N=C(N)N)C(=O)c2cc(OC)ccc21.Cl (stereo not given) | -5 | -3 | -2 | 2 | – | – |
| CCn1cc(C(=O)N=C(N)N)c(=O)c2ccc(C)nc21.Cl | -21 | 1 | -11 | -4 | – | – |
| Cl.N=C(N)NC(=O)c1cc(Cl)c2cc(F)ccc2n1 | – | 19 | – | 58 | 1 | 4 |
| CCn1cc(C(=O)NN=C(N)N)c(=O)c2cc(OC)ccc21.Cl | -6 | -10 | -12 | 6 | – | – |
| CCOc1cc(C(=O)N=C(N)N)nc2cc3c(cc12)OCO3.Cl | -7 | 1 | -6 | -4 | – | – |
| CCn1cc(C(=O)N=C(N)N)c(=O)c2cc(OC)ccc21.Cl | -9 | 0 | 0 | 0 | – | – |
